How the values were obtained:
ROC1-CUL1 CTD [1] = biological target: T1, ROC1-CUL1 CTD (Homo sapiens (Human), UniProt Q13616); assay: Ligand binding by MST; settings: Table 5, MST; read-out: E3 binding Kd
Procedure: E3 ligase complex (˜2 nmol) was labeled with fluorescent dye using Monolith NT Protein Labeling Kit Red-NHS (Nanotemper) in the presence of 20 mM MES pH 6.0 and 150 mM NaCl. Excess dye was removed using the included gravity flow column and eluted in storage buffer containing 20 mM Tris-HCl, pH 7.4, 150 mM NaCl, and 10% glycerol. The fluorescent E3 complex (˜0.01-0.06 μM) was mixed with increasing amount of compound in a buffer (20 μl) that contains phosphate-buffered saline, 0.1% TWEEN-20 and 2% prionex. Following incubation at room temperature for 30 min, the reaction mixture loaded into premium coated capillaries and analyzed in the Monolith NT.115 machine (Nanotemper). Thermophoresis was recorded for each sample and binding curve was generated and Kd was calculated using the included software. For reactions where significant ligand specific fluorescence quenching occurred (verified by manufacturer's SDS Denaturation-test protocol), the initial fluorescence quenching data was used directly to calculate the binding curve and Kd.

E3 CRL4^CRBN = E3 CRL4^CRBN (Homo sapiens (Human), UniProt Q13619); assay: Lenalidomide-dependent ubiquitination of CK1α by CRL4^CRBN; format: biochemical; settings: at 30 μM
Procedure: To prepare Flag-CK1α as a substrate for ubiquitination experiments described in FIGS. 2A-E, the expression vector (purchased from Addgene) was introduced to HEK-293T cells by transfection using Lipofectamine RNAIMAX (ThermoFisher) according to manufacturer's protocols. Cell extracts were prepared and the concentration of Flag-CK1α was determined using immunoblot analysis with purified GST-CK1α (Sigma) as a standard. Typically, 50-100 μl of extracts was used to attach to ˜15 μl of M2 beads (Sigma) at 4° C. for 2 hours. Unbound materials were removed by washing (first three times with a washing buffer containing 50 mM Tris-HCl, pH8.0, 1% Triton X-100, 0.5M NaCl, and then twice with buffer A plus 50 mM NaCl) and the resulting beads were used in the ubiquitination assay (15 μl). The concentration of Flag-CK1α was determined to be ˜100 nM.
Immobilized, Flag-CK1α-containing beads were initially incubated with a reaction mixture (10 μl) containing 50 mM Tris-HCl (pH7.4), 0.5 mM DTT, 0.1 mg/ml of BSA, 5 mM MgCl2, 100 nM CRL4^CRBN, 1 μM Lenalidomide (Selleckchem), 1 μM Fluorescein-Ub, 100 nM E1, and 1 μM UbcH5c. ATP (20 mM) was added last to initiate the reaction. The reaction was incubated on a thermomixer (1,300 rpm; Eppendorf) at 37° C. for 5 min. The resulting beads were then added with a second reaction mixture (5 μl) containing 50 mM Tris-HCl (pH7.4), 0.5 mM DTT, 0.1 mg/ml of BSA, 5 mM MgCl2, 4 μM I-Ub-Q31C/K48R, and 1 μM Cdc34b, in the presence or absence of E3 inhibitors as specified. The reaction was incubated on a thermomixer at 37° C. for times as indicated. The concentrations of enzymes, Ubs, and compounds stated above were adjusted based on a final volume of 15 μl. The beads were then washed using conditions as described above. Materials eluted from the beads were separated by 4-20% SDS-PAGE followed by detection with fluorescence scanning (Typhoon 9500) or immunoblot using anti-CK1α antibody (Abcam). […]

ROC1-CUL1 = ROC1-CUL1 (Homo sapiens (Human), UniProt Q13616); assay: Gel-based di-Ub synthesis; format: biochemical
Procedure: For the experiment shown in FIG. 7 and FIGS. 8A-B, the di-Ub synthesis reaction was carried out by preassembling the donor Ub mix. The donor Ub mixture (5 μl) contained 50 mM Tris HCl (pH 7.4), 5 mM MgCl2, 2 mM ATP, 0.5 mM DTT, 0.1 mg/mL BSA, 1 μM Ub-NC-I555, 0.1 μM E1, and 2 μM Cdc34b. The reaction was incubated for 5 min at 37° C. Compounds, in the amounts indicated, were added followed by the addition of ROC1-CUL1 (or related E3 subcomplex) in amounts as indicated and 10 μM PK-Ub (1-74) (as a receptor). The final volume was adjusted to 10 μl. The reaction was incubated for 10 min at 37° C.
For the experiments shown in FIG. 8C and FIG. 9, the reaction was assembled in a 10-μl mixture containing 50 mM Tris HCl (pH 7.4), 5 mM MgCl2, 0.5 mM DTT, 0.1 mg/mL BSA, 0.05 μM Ub-NC-I555, 2,5 μM PK-Ub (1-74), 0.1 μM E1, 1 μM Cdc34b, and 80 nM ROC1-CUL1 with or without compound. The reaction was initiated by the addition of 2 mM ATP. The products were separated by 4-20% SDS/PAGE and were visualized and quantified on a Typhoon FLA 9500 laser scanner (GE).

ROC1-CUL1 CTD [2] = biological target: T1, ROC1-CUL1 CTD; assay: FRET K48 di-Ub synthesis assay; format: biochemical; settings: HTS screening conditions, read-out: inhibition of the reaction

T1 sequence (Q13616 411-776): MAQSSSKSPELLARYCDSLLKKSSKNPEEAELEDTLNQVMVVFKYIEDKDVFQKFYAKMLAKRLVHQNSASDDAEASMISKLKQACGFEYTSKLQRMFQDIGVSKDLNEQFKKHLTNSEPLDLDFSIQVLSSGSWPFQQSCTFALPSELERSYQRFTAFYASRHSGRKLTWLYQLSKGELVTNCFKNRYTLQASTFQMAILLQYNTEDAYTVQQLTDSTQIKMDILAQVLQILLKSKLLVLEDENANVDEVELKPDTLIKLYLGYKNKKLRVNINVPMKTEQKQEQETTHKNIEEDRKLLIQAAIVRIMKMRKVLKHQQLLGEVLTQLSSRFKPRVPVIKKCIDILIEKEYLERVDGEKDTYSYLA
T1 sequence (P62877 whole entry partner): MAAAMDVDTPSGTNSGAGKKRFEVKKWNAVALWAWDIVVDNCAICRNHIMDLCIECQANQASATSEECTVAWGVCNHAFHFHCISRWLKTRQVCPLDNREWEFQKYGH
Sequence of E3 CRL4^CRBN (Q13619 whole entry): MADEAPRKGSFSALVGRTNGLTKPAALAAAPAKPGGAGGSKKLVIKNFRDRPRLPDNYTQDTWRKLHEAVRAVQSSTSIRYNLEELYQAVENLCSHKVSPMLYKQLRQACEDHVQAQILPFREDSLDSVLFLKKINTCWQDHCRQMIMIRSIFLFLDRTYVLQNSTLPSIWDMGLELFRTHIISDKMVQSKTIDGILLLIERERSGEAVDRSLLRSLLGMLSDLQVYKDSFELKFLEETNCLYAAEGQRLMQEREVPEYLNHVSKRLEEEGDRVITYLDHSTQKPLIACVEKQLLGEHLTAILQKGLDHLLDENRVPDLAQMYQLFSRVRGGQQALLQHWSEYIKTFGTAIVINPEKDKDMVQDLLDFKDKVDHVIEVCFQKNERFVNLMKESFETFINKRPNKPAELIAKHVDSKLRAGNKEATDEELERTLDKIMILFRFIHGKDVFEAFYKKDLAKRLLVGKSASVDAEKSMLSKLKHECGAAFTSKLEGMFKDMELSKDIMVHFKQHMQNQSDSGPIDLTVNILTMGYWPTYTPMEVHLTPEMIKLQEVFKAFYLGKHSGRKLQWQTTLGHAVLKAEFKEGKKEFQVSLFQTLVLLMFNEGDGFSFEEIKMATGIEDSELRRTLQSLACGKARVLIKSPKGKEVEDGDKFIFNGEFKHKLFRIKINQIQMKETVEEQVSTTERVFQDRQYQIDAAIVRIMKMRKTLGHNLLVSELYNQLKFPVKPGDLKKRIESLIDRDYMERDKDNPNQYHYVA
Sequence of E3 CRL4^CRBN (P62877 whole entry partner): as the sequence (P62877 whole entry partner) above
Sequence of E3 CRL4^CRBN (Q16531 whole entry partner): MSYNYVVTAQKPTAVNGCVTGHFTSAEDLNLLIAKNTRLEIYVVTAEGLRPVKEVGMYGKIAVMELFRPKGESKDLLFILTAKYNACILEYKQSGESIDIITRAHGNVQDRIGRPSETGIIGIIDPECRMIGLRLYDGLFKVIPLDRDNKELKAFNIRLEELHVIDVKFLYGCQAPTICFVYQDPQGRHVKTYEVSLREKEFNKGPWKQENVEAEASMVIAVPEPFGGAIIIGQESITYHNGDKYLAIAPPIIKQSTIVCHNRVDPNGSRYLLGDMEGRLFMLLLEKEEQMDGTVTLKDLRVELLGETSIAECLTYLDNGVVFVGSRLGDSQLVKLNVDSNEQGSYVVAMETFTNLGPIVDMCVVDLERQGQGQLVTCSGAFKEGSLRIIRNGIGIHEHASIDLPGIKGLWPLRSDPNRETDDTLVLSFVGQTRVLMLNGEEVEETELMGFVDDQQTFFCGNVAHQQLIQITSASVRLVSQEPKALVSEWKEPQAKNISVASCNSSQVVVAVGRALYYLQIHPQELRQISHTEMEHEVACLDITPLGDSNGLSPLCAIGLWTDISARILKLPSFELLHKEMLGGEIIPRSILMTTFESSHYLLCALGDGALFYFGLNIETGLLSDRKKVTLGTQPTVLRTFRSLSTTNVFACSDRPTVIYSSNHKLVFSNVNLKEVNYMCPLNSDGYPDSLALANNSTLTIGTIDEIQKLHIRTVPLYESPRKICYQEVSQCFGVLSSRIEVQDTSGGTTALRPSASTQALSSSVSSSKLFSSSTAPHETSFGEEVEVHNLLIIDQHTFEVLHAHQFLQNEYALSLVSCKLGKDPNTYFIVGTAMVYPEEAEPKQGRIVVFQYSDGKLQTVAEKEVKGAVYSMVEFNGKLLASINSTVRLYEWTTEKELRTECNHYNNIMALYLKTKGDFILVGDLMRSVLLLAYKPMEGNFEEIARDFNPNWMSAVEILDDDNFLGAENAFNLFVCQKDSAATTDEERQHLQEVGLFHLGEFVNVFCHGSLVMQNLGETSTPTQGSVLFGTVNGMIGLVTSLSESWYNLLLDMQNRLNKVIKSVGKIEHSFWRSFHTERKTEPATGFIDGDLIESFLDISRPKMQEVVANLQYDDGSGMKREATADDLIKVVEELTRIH
Sequence of E3 CRL4^CRBN (Q96SW2 whole entry partner): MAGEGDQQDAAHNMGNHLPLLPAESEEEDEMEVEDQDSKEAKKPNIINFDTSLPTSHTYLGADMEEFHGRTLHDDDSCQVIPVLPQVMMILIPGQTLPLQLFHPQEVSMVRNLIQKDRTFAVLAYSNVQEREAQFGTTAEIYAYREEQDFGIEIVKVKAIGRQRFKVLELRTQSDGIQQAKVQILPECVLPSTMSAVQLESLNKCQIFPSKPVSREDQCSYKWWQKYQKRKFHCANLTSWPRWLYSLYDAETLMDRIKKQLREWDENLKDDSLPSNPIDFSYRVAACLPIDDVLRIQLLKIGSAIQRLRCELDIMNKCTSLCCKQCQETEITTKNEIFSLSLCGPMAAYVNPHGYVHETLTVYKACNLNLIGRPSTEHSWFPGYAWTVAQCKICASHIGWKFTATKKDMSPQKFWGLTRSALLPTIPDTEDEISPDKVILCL
Sequence of ROC1-CUL1 (Q13616 whole entry): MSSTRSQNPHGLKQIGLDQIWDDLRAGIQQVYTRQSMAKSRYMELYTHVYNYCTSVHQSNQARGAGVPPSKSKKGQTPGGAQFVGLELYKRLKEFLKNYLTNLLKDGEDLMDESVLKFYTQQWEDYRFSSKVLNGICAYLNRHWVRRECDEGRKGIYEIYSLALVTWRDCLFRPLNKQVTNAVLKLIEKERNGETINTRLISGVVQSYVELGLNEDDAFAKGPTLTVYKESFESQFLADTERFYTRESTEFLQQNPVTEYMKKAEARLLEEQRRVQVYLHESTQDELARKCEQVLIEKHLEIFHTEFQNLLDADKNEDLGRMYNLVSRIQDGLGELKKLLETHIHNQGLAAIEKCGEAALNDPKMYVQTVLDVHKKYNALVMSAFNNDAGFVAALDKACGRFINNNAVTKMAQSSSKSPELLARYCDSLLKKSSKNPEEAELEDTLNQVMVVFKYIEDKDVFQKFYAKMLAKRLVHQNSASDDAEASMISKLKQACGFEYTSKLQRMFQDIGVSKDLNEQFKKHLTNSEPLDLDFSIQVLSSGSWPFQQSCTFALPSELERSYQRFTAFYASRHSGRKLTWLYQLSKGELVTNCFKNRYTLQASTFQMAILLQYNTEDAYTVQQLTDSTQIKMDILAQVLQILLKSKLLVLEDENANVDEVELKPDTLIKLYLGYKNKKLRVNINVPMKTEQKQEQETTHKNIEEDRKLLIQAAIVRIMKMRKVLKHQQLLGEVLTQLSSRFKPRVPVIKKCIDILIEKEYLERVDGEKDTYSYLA
Sequence of ROC1-CUL1 (P62877 whole entry partner): as the sequence (P62877 whole entry partner) above

SMILES	Kd (ROC1-CUL1 CTD [1])	inhibition of ubiquitination of CK1α (E3 CRL4^CRBN)	discharge of Cdc34-Ub and production of Ub2 by ROC1-CUL1 (ROC1-CUL1)	inhibition at 0.8 µM (ROC1-CUL1 CTD [2]; 0.8 μM)	inhibition at 5 µM (ROC1-CUL1 CTD [2]; 5 μM)
O=c1c(Oc2ccccc2)c(C(F)(F)F)oc2c(O)c(O)ccc12 [#33, 7,8-dihydroxy-3-phenoxy-2-(trifluoromethyl)-4H-chromen-4-one]	1840 nM	Significant inhibitory effects	showed inhibition		
Cc1ccc(C(=O)Nc2ccc(S(=O)(=O)O)c3cc(S(=O)(=O)O)cc(S(=O)(=O)O)c23)cc1NC(=O)c1cccc(NC(=O)Nc2cccc(C(=O)Nc3cc(C(=O)Nc4ccc(S(=O)(=O)O)c5cc(S(=O)(=O)O)cc(S(=O)(=O)O)c45)ccc3C)c2)c1 [Suramin, suramin]				50%	100%

— US20240174649A1, “CULLIN-RING E3 UBIQUITIN LIGASE 4 INHIBITOR COMPOUNDS AND METHODS OF THEIR USE” (ICAHN SCHOOL OF MEDICINE AT MOUNT SINAI, priority 2021, published 2024)
